Results: patent US20150258106A1, “METHODS FOR ACUTE AND LONG-TERM TREATMENT OF SUBSTANCE ABUSE” (DEMERX, INC., priority 2014, published 2015)

Experiment: Pharmacokinetics of noribogaine in healthy volunteers, ascending single oral dose (plasma noribogaine and noribogaine glucuronide)
Settings: for AUC0-216 / AUC0-∞ / Cmax / Tmax / t1/2: healthy male volunteers, n = 6, mean (SD)
[1] = glucuronide in plasma after single oral 30 mg noribogaine dose
[2] = glucuronide in plasma after single oral 60 mg noribogaine dose
[3] = plasma noribogaine glucuronide, 30 mg and 60 mg dose groups

For `CC[C@H]1C[C@@H]2C[C@H]3c4[nH]c5ccc(OC6OC(C(=O)O)C(O)C(O)C6O)cc5c4CCN(C2)[C@@H]13` (some centres unmarked) [Noribogaine glucuronide, noribogaine glucuronide], the “proportion of noribogaine glucuronide Cmax and AUC relative to noribogaine” value (both dose groups (30 mg, 60 mg)) was 3-4%, the AUC0-216 [1] was 25.7 (9.1) ng · hr/ml and the “AUC0-∞” value [1] was 25.8 (9.3) ng · hr/ml. For the same compound, the Cmax [1] was 1.8 (0.6) ng/ml, the Tmax [1] was 3.0 (0.6) hr and the t1/2 [1] was 20.6 (4.9) hr. For the same compound, the AUC0-216 [2] was 65.0 (21.5) ng · hr/ml, the “AUC0-∞” value [2] was 67.1 (21.9) ng · hr/ml and the Cmax [2] was 4.1 (1.2) ng/ml. For the same compound, the Tmax [2] was 3.8 (1.2) hr, the t1/2 [2] was 23.1 (3.0) hr and the Mean half-life [3] was 21 to 23 h. The “time of peak concentrations after noribogaine dosing” value [3] was 3 to 4 h and the “time by which noribogaine glucuronide was detected in all subjects” value (plasma, after 30 mg or 60 mg noribogaine dose) was at most 0.75 h.
